Here are results for 30 compounds from patent US20260274866A1, “PYRIDO[4,3-D]PYRIMIDINE DERIVATIVES AS MUTANT KRAS G12C INHIBITORS FOR THE TREATMENT OF CANCER” (Frontier Medicines Corporation, priority 2023, published 2026).

The target of this assay is T1, KRAS G12C (GMPPNP-loaded) and cRAF (Ras-binding domain) interaction (Homo sapiens, UniProt P01116, C118S/C51S/C80L/G12C).
T1 construct: truncated version comprising amino acids 1-169
The assay can be described thus: AlphaScreen inhibition of KRAS G12C and cRAF binding. The note with it: KRAS G12C preloaded with GTP analogue GMPPNP, 2 hours preincubation. In kind it is biochemical. Here is the method: The AlphaScreen technology was used to determine IC50s for compound inhibition of KRAS G12C (present as the Cys-light (C51S, C80L and C118S), truncated version comprising amino acids 1-169) and cRAF interaction. Compounds were diluted in 100% DMSO and each compound concentration was spotted at 200 nl/well onto low volume, white 384 well plates. The KRAS G12C contained a biotin-AviTag and the cRaf, as Ras-binding domain (amino acids 50-131, RBD), was GST-tagged. KRAS G12C was preloaded with the GTP analogue Guanosine 5′-[β,γ-imido]triphosphate (GMPPNP). The KRAS G12C was diluted in 25 mM Hepes, pH 7.4, 150 mM NaCl, 5 mM MgCl2, 0.01% TritonX-100 and 10 μM GMPPNP and added at 10 ul/well to compound-spotted plates resulting in a DMSO concentration of 2%. Plates were incubated for 2 hours. A mixture of RBD and the AlphaScreen streptavidin donor and glutathione acceptor beads diluted in 25 mM Hepes, pH 7.4, 150 mM NaCl, 5 mM MgCl2, 0.01% TritonX-100 and 2% DMSO was then added at 10 ul/well and incubated for 60-90 minutes before the samples were read for emission at 570 nm after excitation of the donor beads at 680 nm. All incubations were performed at room temperature. The final top compound concentration was 50 μM with 1:3 titrations for 10-point dose response curves. Final assay conditions were 0.5 nM KRAS G12C, 0.75 nM RBD and 5 ug/ml each of AlphaScreen donor and acceptor beads. IC50s were determined using nonlinear regression fit of [inhibitor] vs. response (4 parameters).
A counter assay was also set up to rule out inhibitors of the AlphaScreen technology itself. Compound plates were incubated for 2 hours as above with buffer only. The AlphaScreen beads were added as above except biotin-AviTag-GST was substituted for the RBD. Samples were read and analyzed as above.
On the technique in general: In Alpha technology, singlet oxygen from a donor bead excites a nearby acceptor bead.

T1 sequence (P01116 1-169 isoform P01116-2 G12C/C51S/C80L/C118S): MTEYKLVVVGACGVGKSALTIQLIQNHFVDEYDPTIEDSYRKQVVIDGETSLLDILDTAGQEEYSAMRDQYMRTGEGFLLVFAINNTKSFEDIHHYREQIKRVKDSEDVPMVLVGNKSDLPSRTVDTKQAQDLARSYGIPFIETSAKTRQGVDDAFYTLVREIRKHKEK

`C[C@H](/C=C/C(=O)N1CC[C@@H](N(C)c2nc(OC[C@@]34CCCN3C[C@H](F)C4)nc3c(F)c(-c4cccc5cccc(Cl)c45)ncc23)C1)N(C)C` [Compound 1] gave an IC50 of 100 to 500 nM. In turn, `C[C@@H](/C=C/C(=O)N1CC[C@@H](N(C)c2nc(OC[C@@]34CCCN3C[C@H](F)C4)nc3c(F)c(-c4cccc5cccc(Cl)c45)ncc23)C1)N(C)C` [Compound 2] came in with an IC50 of under 10 nM. For `CC(/C=C/C(=O)N1CCN(c2nc(OCC34CCCN3CCC4)nc3c2CCN(c2cccc4cccc(Cl)c24)C3)C[C@@H]1CC#N)N1CCOCC1` (stereo partly drawn) [Compound 3], the IC50 fell in the range of 10 to 100 nM. Next, `C[C@H](/C=C/C(=O)N1CCN(c2nc(OCC34CCCN3CCC4)nc3c2CCN(c2cccc4cccc(Cl)c24)C3)C[C@@H]1CC#N)N(C)C` [Compound 4]: under 10 nM; `C[C@@H](/C=C/C(=O)N1CCN(c2nc(OCC34CCCN3CCC4)nc3c2CCN(c2cccc4cccc(Cl)c24)C3)C[C@@H]1CC#N)N(C)C` [Compound 5]: 10 to 100 nM; `C[C@H](/C=C/C(=O)N1CC[C@@H](N(C)c2nc(OC[C@@]34CCCN3C[C@H](F)C4)nc3c(F)c(-c4cccc5ccc(F)c(Cl)c45)ncc23)C1)N(C)C` [Compound 6]: 100 to 500 nM. The same measure for `C[C@H](/C=C/C(=O)N1CC[C@@H](N(C)c2nc(OC[C@@]34CCCN3C[C@H](F)C4)nc3c(F)c(-c4cccc5ccc(F)c(F)c45)ncc23)C1)N(C)C` [Compound 7, (R,E)-1-((R)-3-((7-(7,8-difluoronaphthalen-1-yl)-8-fluoro-2-(((2R,7aS)-2-fluorotetrahydro-1H-pyrrolizin-7a(5H)-yl)methoxy)pyrido[4,3-d]pyrimidin-4-yl)(methyl)amino)pyrrolidin-1-yl)-4-(dimethylamino)pent-2-en-1-one]: 100 to 500 nM; for `C[C@@H](/C=C/C(=O)N1C[C@H](F)[C@@H](N(C)c2nc(OC[C@@]34CCCN3C[C@H](F)C4)nc3c(F)c(-c4cccc5cccc(Cl)c45)ncc23)C1)N(C)C` [Compound 8]: 10 to 100 nM; for `C[C@H](/C=C/C(=O)N1C[C@H](F)[C@@H](N(C)c2nc(OC[C@@]34CCCN3C[C@H](F)C4)nc3c(F)c(-c4cccc5cccc(Cl)c45)ncc23)C1)N(C)C` [Compound 9]: 10 to 100 nM. Next, `C[C@@H](/C=C/C(=O)N1CC[C@@H](N(C)c2nc(OC[C@@]34CCCN3C[C@H](F)C4)nc3c(F)c(-c4cccc5ccc(F)c(F)c45)ncc23)C1)N(C)C` [Compound 10, (S,E)-1-((R)-3-((7-(7,8-difluoronaphthalen-1-yl)-8-fluoro-2-(((2R,7aS)-2-fluorotetrahydro-1H-pyrrolizin-7a(5H)-yl)methoxy)pyrido[4,3-d]pyrimidin-4-yl)(methyl)amino)pyrrolidin-1-yl)-4-(dimethylamino)pent-2-en-1-one]: under 10 nM; `CC(/C=C/C(=O)N1CCN(c2nc(OC[C@@]34CCCN3C[C@H](F)C4)nc3c(F)c(-c4cccc5cccc(Cl)c45)ncc23)C[C@@H]1CC#N)N1CCOCC1` (stereo partly drawn) [Compound 11]: 10 to 100 nM; `C[C@H](/C=C/C(=O)N1CC[C@@H](N(C)c2nc(OC[C@@]34CCCN3C[C@H](F)C4)nc3c(F)c(-c4cccc5cccc(Cl)c45)ncc23)C1)N1CCC1` [Compound 12]: 10 to 100 nM. The compound `CO[C@H]1CCN(C(C)/C=C/C(=O)N2CCN(c3nc(OC[C@@]45CCCN4C[C@H](F)C5)nc4c(F)c(-c5cccc6ccc(F)c(Cl)c56)ncc34)C[C@@H]2CC#N)C1` (stereo partly drawn) [Compound 13] gave an IC50 of under 10 nM. Next, `CO[C@@H]1CCN(C(C)/C=C/C(=O)N2CCN(c3nc(OC[C@@]45CCCN4C[C@H](F)C5)nc4c(F)c(-c5cccc6ccc(F)c(Cl)c56)ncc34)C[C@@H]2CC#N)C1` (stereo partly drawn) [Compound 14]: under 10 nM. In turn, `CC(/C=C/C(=O)N1CCN(c2nc(OC[C@@]34CCCN3C[C@H](F)C4)nc3c(F)c(-c4cccc5cccc(Cl)c45)ncc23)C[C@@H]1CC#N)N1C[C@@H]2C[C@H]1CO2` (stereo partly drawn) [Compound 15] returned an IC50 of 10 to 100 nM.

With `CC(/C=C/C(=O)N1CCN(c2nc(OC[C@@]34CCCN3C[C@H](F)C4)nc3c(F)c(-c4cccc5cccc(Cl)c45)ncc23)C[C@@H]1CC#N)N1C[C@H]2C[C@@H]1CO2` (stereo partly drawn) [Compound 16], the IC50 lay within 10 to 100 nM. The same measure for `CC(/C=C/C(=O)N1CCN(c2nc(OC[C@@]34CCCN3C[C@H](F)C4)nc3c(F)c(-c4cccc5cccc(Cl)c45)ncc23)C[C@@H]1CC#N)N1[C@@H]2CC[C@H]1COC2` (stereo partly drawn) [Compound 17]: under 10 nM; for `C[C@@H](/C=C/C(=O)N1CC[C@@H](N(C)c2nc(OC[C@@]34CCCN3C[C@H](F)C4)nc3c(F)c(-c4cccc5ccc(F)c(Cl)c45)ncc23)C1)N(C)C` [Compound 18]: at least 500 nM; for `CO[C@H]1CCN([C@@H](C)/C=C/C(=O)N2CCN(c3nc(OC[C@@]45CCCN4C[C@H](F)C5)nc4c(F)c(-c5cccc6ccc(F)c(Cl)c56)ncc34)C[C@@H]2CC#N)C1` [Compound 19, 2-((S)-4-(7-(8-chloro-7-fluoronaphthalen-1-yl)-8-fluoro-2-(((2R,7aS)-2-fluorotetrahydro-1H-pyrrolizin-7a(5H)-yl)methoxy)pyrido[4,3-d]pyrimidin-4-yl)-1-((S,E)-4-((S)-3-methoxypyrrolidin-1-yl)pent-2-enoyl)piperazin-2-yl)acetonitrile]: 10 to 100 nM. `CO[C@H]1CCN([C@H](C)/C=C/C(=O)N2CCN(c3nc(OC[C@@]45CCCN4C[C@H](F)C5)nc4c(F)c(-c5cccc6ccc(F)c(Cl)c56)ncc34)C[C@@H]2CC#N)C1` [Compound 20, 2-((S)-4-(7-(8-chloro-7-fluoronaphthalen-1-yl)-8-fluoro-2-(((2R,7aS)-2-fluorotetrahydro-1H-pyrrolizin-7a(5H)-yl)methoxy)pyrido[4,3-d]pyrimidin-4-yl)-1-((R,E)-4-((S)-3-methoxypyrrolidin-1-yl)pent-2-enoyl)piperazin-2-yl)acetonitrile]: the IC50 was under 10 nM. As for `C[C@H](/C=C/C(=O)N1CCN(c2nc(OCC34CCCN3CCC4)nc3c2CCN(c2cccc4cccc(Cl)c24)C3)C[C@@H]1CC#N)N1CCOCC1` [Compound 21], the IC50 lay within 10 to 100 nM. Next, `C[C@@H](/C=C/C(=O)N1CCN(c2nc(OCC34CCCN3CCC4)nc3c2CCN(c2cccc4cccc(Cl)c24)C3)C[C@@H]1CC#N)N1CCOCC1` [Compound 22]: 10 to 100 nM.

In turn, `C[C@H](/C=C/C(=O)N1CCN(c2nc(OC[C@@]34CCCN3C[C@H](F)C4)nc3c(F)c(-c4cccc5cccc(Cl)c45)ncc23)C[C@@H]1CC#N)N1CCOCC1` [Compound 23] had a concentration for half-maximal inhibition (IC50) of 10 to 100 nM. The compound `C[C@@H](/C=C/C(=O)N1CCN(c2nc(OC[C@@]34CCCN3C[C@H](F)C4)nc3c(F)c(-c4cccc5cccc(Cl)c45)ncc23)C[C@@H]1CC#N)N1CCOCC1` [Compound 24] came in with an IC50 of 10 to 100 nM. Consider `C[C@H](/C=C/C(=O)N1CCN(c2nc(OC[C@@]34CCCN3C[C@H](F)C4)nc3c(F)c(-c4cccc5cccc(Cl)c45)ncc23)C[C@@H]1CC#N)N1C[C@H]2C[C@@H]1CO2` [Compound 25], for which the IC50 fell in the range of 10 to 100 nM.

In turn, `C[C@@H](/C=C/C(=O)N1CCN(c2nc(OC[C@@]34CCCN3C[C@H](F)C4)nc3c(F)c(-c4cccc5cccc(Cl)c45)ncc23)C[C@@H]1CC#N)N1C[C@H]2C[C@@H]1CO2` [Compound 26] displayed an IC50 of 10 to 100 nM.

`CC(/C=C/C(=O)N1CCN(c2nc(OC[C@@]34CCCN3C[C@H](F)C4)nc3c(F)c(-c4cccc5cccc(Cl)c45)ncc23)C[C@@H]1CC#N)N1C2COCC1C2` (stereo partly drawn) [Compound 27] had an IC50 of 10 to 100 nM.

In the case of `CC(/C=C/C(=O)N1CCN(c2nc(OC[C@@]34CCCN3C[C@H](F)C4)nc3c(F)c(-c4cccc5cccc(Cl)c45)ncc23)C[C@@H]1CC#N)N1CC[C@H](F)C1` (stereo partly drawn) [Compound 28], the IC50 fell in the range of 10 to 100 nM. The same measure for `CC(/C=C/C(=O)N1CCN(c2nc(OC[C@@]34CCCN3C[C@H](F)C4)nc3c(F)c(-c4cccc5cccc(Cl)c45)ncc23)C[C@@H]1CC#N)N1CC[C@@H](F)C1` (stereo partly drawn) [Compound 29, 2-((2S)-4-(7-(8-chloronaphthalen-1-yl)-8-fluoro-2-(((2R,7aS)-2-fluorotetrahydro-1H-pyrrolizin-7a(5H)-yl)methoxy)pyrido[4,3-d]pyrimidin-4-yl)-1-((E)-4-((R)-3-fluoropyrrolidin-1-yl)pent-2-enoyl)piperazin-2-yl)acetonitrile]: under 10 nM; for `C[C@H](/C=C/C(=O)N1CCN(c2nc(OC[C@@]34CCCN3C[C@H](F)C4)nc3c(F)c(-c4cccc5cccc(Cl)c45)ncc23)C[C@@H]1CC#N)N1[C@@H]2CC[C@H]1COC2` [Compound 30, 2-((S)-1-((R,E)-4-((1R,5S)-3-oxa-8-azabicyclo[3.2.1]octan-8-yl)pent-2-enoyl)-4-(7-(8-chloronaphthalen-1-yl)-8-fluoro-2-(((2R,7aS)-2-fluorotetrahydro-1H-pyrrolizin-7a(5H)-yl)methoxy)pyrido[4,3-d]pyrimidin-4-yl)piperazin-2-yl)acetonitrile]: 10 to 100 nM.

The term IC50 denotes the concentration that gives 50% inhibition. A high value points to weaker potency in that assay.
